Data: patent US3960667A, “Antibiotic A23187 and process for preparation thereof” (priority 1975, dated 1976)
Converted amounts (≈) assume the structure as drawn. Where a name gives a salt, the structure may show the parent alone.

Tests used:
Ceratostomella ulmi = experiment: Antibiotic activity, agar dilution; format: cell-based; conditions: Ophiostoma ulmi, agar dilution (ad), read-out: Minimum inhibitory concentration
Text: (§1) The novel antibiotic of this invention has an inhibitory action against the growth of microbial organisms, both bacteria and fungi, which are pathogenic to animal and plant life and is therefore useful in suppressing the growth of such organisms. The antibiotic A23187 is useful in wash solutions for sanitation purposes, as in the cleaning of equipment, floors or furnishings of contaminated rooms or laboratories. For such purposes, the antibiotic, or a salt thereof, is conveniently formulated as a solution in one of the lower chlorinated hydrocarbons, as for example, chloroform. […] The preparation of such formulations is readily accomplished by methods known in the art. The antibiotic can be employed in a wide range of concentrations. Because of its relatively high activity, concentratons of 100 to 500 parts per million are generally adequate for most purposes. The letters bd refer to broth dilution and the letters ad refer to agar dilution.

Colletotrichum pisi = experiment: Antibiotic activity, agar dilution; format: cell-based; conditions: agar dilution (ad), read-out: Minimum inhibitory concentration
Text: as §1

[1] = tested on: Trichophyton mentagrophytes; experiment: Antibiotic activity, agar dilution; format: cell-based; conditions: agar dilution (ad), read-out: Minimum inhibitory concentration
Text: as §1

Lactobacillus casei = experiment: Antibiotic activity, agar dilution; format: cell-based; conditions: Lacticaseibacillus casei, agar dilution (ad), read-out: Minimum inhibitory concentration
Text: as §1

Leuconostoc citrovorum = experiment: Antibiotic activity, agar dilution; format: cell-based; conditions: agar dilution (ad), read-out: Minimum inhibitory concentration
Text: as §1

[2] = tested on: Saccharomyces pastorianus; experiment: Antibiotic activity, agar dilution; format: cell-based; conditions: agar dilution (ad), read-out: Minimum inhibitory concentration
Text: as §1

Glomerella cingulata = experiment: Antibiotic activity, agar dilution; format: cell-based; conditions: Colletotrichum gloeosporioides, agar dilution (ad), read-out: Minimum inhibitory concentration
Text: as §1

Pullularia sp. = experiment: Antibiotic activity, agar dilution; format: cell-based; conditions: agar dilution (ad), read-out: Minimum inhibitory concentration
Text: as §1

Bacillus subtilis = experiment: Antibiotic activity, agar dilution; format: cell-based; conditions: agar dilution (ad), read-out: Minimum inhibitory concentration
Text: as §1

Candida albicans = experiment: Antibiotic activity, agar dilution; format: cell-based; conditions: agar dilution (ad), read-out: Minimum inhibitory concentration
Text: as §1

Mycobacterium avium = experiment: Antibiotic activity, agar dilution; format: cell-based; conditions: agar dilution (ad), read-out: Minimum inhibitory concentration
Text: as §1

Penicillium expansum = experiment: Antibiotic activity, agar dilution; format: cell-based; conditions: agar dilution (ad), read-out: Minimum inhibitory concentration
Text: as §1

Cladosporium resinae = experiment: Antibiotic activity, agar dilution; format: cell-based; conditions: Amorphotheca resinae, agar dilution (ad), read-out: Minimum inhibitory concentration
Text: as §1

Botrytis cinerea = experiment: Antibiotic activity, agar dilution; format: cell-based; conditions: agar dilution (ad), read-out: Minimum inhibitory concentration
Text: as §1

Helminthosporium sativum = experiment: Antibiotic activity, agar dilution; format: cell-based; conditions: agar dilution (ad), read-out: Minimum inhibitory concentration
Text: as §1

Solubility = format: physicochemical
[3] = tested on: Staphylococcus aureus 1130; experiment: Antibiotic activity, broth dilution; format: cell-based; conditions: broth dilution (bd), read-out: Minimum inhibitory concentration
Text: as §1

Pasteurella multocida = experiment: Antibiotic activity, broth dilution; format: cell-based; conditions: broth dilution (bd), read-out: Minimum inhibitory concentration
Text: as §1

Erysipelas insidiosa = experiment: Antibiotic activity, broth dilution; format: cell-based; conditions: broth dilution (bd), read-out: Minimum inhibitory concentration
Text: as §1

[4] = tested on: Staphylococcus aureus 3055; experiment: Antibiotic activity, broth dilution; format: cell-based; conditions: broth dilution (bd), read-out: Minimum inhibitory concentration
Text: as §1

Mycoplasma gallisepticum = experiment: Antibiotic activity, broth dilution; format: cell-based; conditions: Mycoplasmoides gallisepticum, broth dilution (bd), read-out: Minimum inhibitory concentration
Text: as §1

Pasteurella hemolytica = experiment: Antibiotic activity, broth dilution; format: cell-based; conditions: broth dilution (bd), read-out: Minimum inhibitory concentration
Text: as §1

[5] = tested on: Streptococcus faecalis 80; experiment: Antibiotic activity, broth dilution; format: cell-based; conditions: Enterococcus faecalis, broth dilution (bd), read-out: Minimum inhibitory concentration
Text: as §1

Acute toxicity in mice = conditions: mouse, in vivo, ip, administered intraperitoneally
Method: The acute toxicity of antibiotic A23187 in mice, expressed as LD50, is about 10 mg/kg of body weight when the antibiotic is administered intraperitoneally.

[6] = Affinity for divalent cations (complex formation); format: binding
Text: Another characteristic feature of A23187 is its ability to form complexes with certain divalent cations. In experiments to determine the affinity of A23187 for such cations, the following order of reactivity is seen: […]

Electrometric titration = format: physicochemical; conditions: 90% dimethylsulfoxide; electrometric titration in 90 percent dimethylsulfoxide
Method: The molecular weight, calculated from titration data, is approximately 550. A23187 is optically active, having a specific rotation, [α]D^25, of […], at a concentration of 1% in chloroform.

SMILES: CNc1ccc2oc(C[C@H]3O[C@@]4(CC[C@H]3C)O[C@H]([C@H](C)C(=O)c3ccc[nH]3)[C@H](C)C[C@H]4C)nc2c1C(=O)O [Antibiotic A23187]
- MIC (Ceratostomella ulmi): 6.25 µg/mL (≈ 11.9 µM)
- MIC (Colletotrichum pisi): 6.25 µg/mL (≈ 11.9 µM)
- MIC [1]: 0.78 µg/mL (≈ 1.49 µM)
- MIC (Lactobacillus casei): 0.78 µg/mL (≈ 1.49 µM)
- MIC (Leuconostoc citrovorum): 0.2 µg/mL (≈ 0.382 µM)
- MIC [2]: 1.56 µg/mL (≈ 2.98 µM)
- MIC (Glomerella cingulata): 100 µg/mL (≈ 191 µM)
- MIC (Pullularia sp.): 1.56 µg/mL (≈ 2.98 µM)
- MIC (Bacillus subtilis): 0.2 µg/mL (≈ 0.382 µM)
- MIC (Candida albicans): 25 µg/mL (≈ 47.7 µM)
- MIC (Mycobacterium avium): 0.4 µg/mL (≈ 0.764 µM)
- MIC (Penicillium expansum): 6.25 µg/mL (≈ 11.9 µM)
- MIC (Cladosporium resinae): 6.25 µg/mL (≈ 11.9 µM)
- MIC (Botrytis cinerea): 1.56 µg/mL (≈ 2.98 µM)
- MIC (Helminthosporium sativum): 25 µg/mL (≈ 47.7 µM)
- solubility in water (Solubility): relatively insoluble in water
- MIC [3]: 0.048 µg/mL (≈ 0.0917 µM)
- MIC (Pasteurella multocida): 0.39 µg/mL (≈ 0.745 µM)
- MIC (Erysipelas insidiosa): < 0.048 µg/mL
- MIC [4]: 0.78 µg/mL (≈ 1.49 µM)
- MIC (Mycoplasma gallisepticum): 1.56 µg/mL (≈ 2.98 µM)
- MIC (Pasteurella hemolytica): 12.5 µg/mL (≈ 23.9 µM)
- MIC [5]: 0.097 µg/mL (≈ 0.185 µM)
- LD50 (Acute toxicity in mice): ~10 mg/kg
- affinity for Be^+^+ [6]: moderate affinity
- affinity for Cd^+^+ [6]: appreciable affinity
- affinity for Co^+^+ [6]: moderate affinity
- affinity for Hg^+^+ [6]: no apparent affinity
- affinity for Ni^+^+ [6]: moderate affinity
- affinity for Zn^+^+ [6]: moderate affinity
- order of reactivity (affinity) for divalent cations ([6]; Mn, Ca, Mg, Sr, Ba cations): Mn^+^+ >> Ca^+^+ = Mg^+^+ > Sr^+^+ > Ba^+^+
- ionophorous properties, specificity ([6]; divalent cations): high specificity for divalent cations

SMILES: CNc1ccc2oc(CC3OC4(CCC3C)OC(C(C)C(=O)c3ccc[nH]3)C(C)CC4C)nc2c1C(=O)O (stereo not drawn) [mixed calcium-magnesium salt of A23187]
- solubility in the lower alkyl ketones (Solubility; acetone, methylethyl ketone, diethyl ketone and the like): very soluble
- solubility in the lower alcohols (Solubility; methanol, ethanol, isopropanol and the like): very slightly soluble
- solubility in esters formed with the lower alkyl carboxylic acids and lower alcohols (Solubility; methyl acetate, ethyl acetate, methyl propionate, amyl acetate, methyl butyrate and the like): very soluble
- solubility in the lower alkyl chlorinated hydrocarbons (Solubility; methylene chloride, chloroform, dichloroethane and the like): very soluble
- solubility in hydrocarbons (Solubility; pentane, hexane, heptane and the like): insoluble
- solubility in water (Solubility): insoluble
- pKa (Electrometric titration): 6.9
